Measurements taken from BindingDB's records for doi:10.1021/ml500238q (University of Bonn, 2014).

molecular target: Cathepsin K (Homo sapiens) (UniProt P43235); assay: Inhibition of human cathepsin K using Z-Leu-Arg-AMC fluorogenic substrate incubated for 60 mins

Ki [pM] | Compound
31000 | CN(C(=O)OC(C)(C)C)N(C#N)CC(=O)N1CCOCC1
1.43 | CC(C)(C)OC(=O)NN(C#N)CC(=O)N(Cc1ccccc1)Cc1ccccc1
4.2 | CN(Cc1ccccc1)C(=O)CN(C#N)NC(=O)OC(C)(C)C
11 | CC(C)(C)OC(=O)NN(C#N)CC(=O)N1CCOCC1
